Our source for the melting point values is patent publication US6875761B2 (Eisai Co., Ltd., priority 1997, dated 2005).

Structures can show the parent of a compound that is named as a salt.

As a reminder, the melting point is the temperature of the solid-liquid transition. `CCN1CCN(c2nc(-c3ccc(CCCCO)cc3)cc3ccccc23)CC1` (as salt: hydrochloride) [Example 23, 3-[4-(4-hydroxybutyl)phenyl]-1-(4-ethylpiperazin-1-yl)isoquinoline hydrochloride] returned a melting point of 140 to 144 °C. To `CCN1CCN(c2nc(-c3ccc(OCCO)c(C(C)C)c3)cc3ccccc23)CC1` (as salt: hydrochloride) [Example 41, 3-[3-isopropyl-4-(2-hydroxyethoxy)phenyl]-1-(4-ethylpiperazin-1-yl)isoquinoline hydrochloride] belongs 248 to 250 °C (dec.); to `CCN1CCN(c2nc(-c3ccc(C(C)CCO)cc3)cc3ccccc23)CC1` (stereo not drawn) (as salt: oxalate) [Example 383, 1-(4-Ethylpiperazin-1-yl)-3-[4-(3-Hydroxy-1-Methylpropyl)Phenyl]Isoquinoline Oxalate], 106 to 108 °C; to `CCN1CCN(c2nc(-c3ccc(C(=O)N4CCCC4)cc3)cc3ccsc23)CC1` (as salt: hydrochloride) [Example 274, 7-(1-ethylpiperazin-4-yl)-5-[4-(pyrrolidinyl-1-carbonyl)phenyl]thieno[2,3-c]pyridine dihydrochloride], 143 to 146 °C. The figure for `CCN1CCN(c2nc(-c3ccc(OCCOC)c(OCCOC)c3)cc3ccccc23)CC1` (as salt: hydrochloride) [Example 43, 3-[3,4-Di(2-Methoxyethoxy)Phenyl]-1-(4-Ethylpiperazin-1-Yl)Isoquinoline Hydrochloride] is 143 to 144 °C; for `CCN1CCN(c2nc(-c3ccc(CO)cc3)cc3ccccc23)CC1` (as salt: hydrochloride) [Example 17, 1-(4-ethylpiperazin-1-yl)-3-(4-hydroxymethylphenyl)isoquinoline hydrochloride] it is 145 to 147 °C; for `CCN1CCN(c2nc(-c3ccc(C(CC(C)O)OC)cc3)cc3ccccc23)CC1` (stereo not drawn) (as salt: hydrochloride) [Example 26, 3-[4-(3-hydroxy-1-methoxybutyl)phenyl]-1-(4-ethylpiperazin-1-yl)isoquinoline] it is 171 to 174 °C. The figure for `CCN1CCN(c2nc(-c3ccc(OCCCC(C)(C)O)cc3)cc3sccc23)CC1` (as salt: hydrochloride) [Example 292, 6-[4-(4-methyl-4-hydroxypentyloxy)phenyl]-4-(4-ethylpiperazin-1-yl)thieno[3,2-c]pyridine] is 116 to 118 °C. `CCN1CCN(c2nc(-c3ccc(C(C)O)cc3)cc3ccccc23)CC1` (stereo not drawn) (as salt: hydrochloride) [Example 348, 1-(4-ethylpiperazin-1-yl)-3-[4-(1-hydroxyethyl)phenyl]isoquinoline dihydrochloride] yielded a melting point of 135.5 to 136 °C.

As to `CCN1CCN(c2nc(C3CCCc4ccc(OC)cc43)cc3ccccc23)CC1` (stereo not drawn) (as salt: oxalate), the melting point was 110 to 112 °C. On to `CCN1CCN(c2nc(-c3ccc(CCC(C)O)cc3)cc3ccoc23)CC1` (stereo not drawn) (as salt: hydrochloride) [Example 300, 7-(1-ethylpiperazin-4-yl)-5-[4-(3-hydroxybutyl)phenyl]furo[2,3-c]pyridine dihydrochloride], for which the melting point fell in the range of 175 to 177 °C. The figure for `CCCN1CCN(c2nc(-c3ccc(OC)cc3)cc3ccccc23)CC1` (as salt: hydrochloride) is 220 to 226 °C; for `CCN1CCN(c2nc(/C=C/c3ccc(N4CCOCC4)cc3)cc3ccccc23)CC1` (as salt: oxalate) [Example 205, 3-{(E)-2-[4-(4-Morpholinyl)Phenyl]Ethenyl}-1-(4-Ethylpiperazin-1-Yl)Isoquinoline Oxalate] it is 248 to 250 °C; for `CCN1CCN(c2nc(-c3ccc(CCCO)c(OC)c3)cc3ccsc23)CC1` (as salt: hydrochloride) [Example 433, 7-(4-ethylpiperazin-1-yl)-5-[4-(3-hydroxypropyl)-3-methoxyphenyl]thieno[2,3-c]-pyridine hydrochloride] it is 114 to 115 °C.

`CCN1CCN(c2nc(CCc3ccc(OC)cc3)cc3ccccc23)CC1` (as salt: hydrochloride) [Example 106, 1-(1-Ethylpiperazin-4-yl)-3-(4-methoxyphenethyl)isoquinoline]: the melting point was 224 to 227 °C. The figure for `CCN1CCN(c2nc(-c3ccc(C4=CCC(O)CC4)cc3)cc3ccccc23)CC1` (stereo not drawn) (as salt: hydrochloride) [Example 64, 3-[4-(4-Hydroxy-1-Cyclohexen-1-Yl)Phenyl]-1-(4-Ethylpiperazin-1-Yl)Isoquinoline Hydrochloride] is 164 to 166 °C; for `CCN1CCN(c2nc(-c3ccc(C4COCCO4)cc3)cc3ccccc23)CC1` (stereo not drawn) (as salt: hydrochloride) [Example 395, 1-(4-Ethylpiperazin-1-yl)-3-[4-(1,4-Dioxan-2-yl)Phenyl]Isoquinoline Dihydrochloride] it is 163 to 166 °C (dec.).

On to `CCN1CCN(c2nc(-c3ccc(CC(C)(C)O)cc3)cc3ccccc23)CC1` (as salt: oxalate) [Example 377, 1-(4-Ethylpiperazin-1-yl)-3-[4-(2-Hydroxy-2-Methylpropyl)Phenyl]Isoquinoline Oxalate], for which the melting point is 184 to 186 °C (dec.).

Take `CCN1CCN(c2nc(-c3ccc(C4=CCOCC4)s3)cc3ccccc23)CC1` (as salt: hydrochloride) [Example 176, 3-[2-(5,6-Dihydro-2H-Pyran-4-Yl)Thiophen-5-Yl]-1-[4-Ethylpiperazin-1-Yl)Isoquinoline Hydrochloride]: the melting point lay within 256 to 258 °C. To `CCN1CCN(c2nc(-c3ccc(N4CCC(OC)CC4)cc3)cc3ccccc23)CC1` (as salt: hydrochloride) [Example 98, 1-(4-Ethylpiperazin-1-yl)-3-[4-(4-methoxypiperidin-1-yl)phenyl]isoquinoline Trihydrochloride] belongs 165 °C; to `COc1ccc(-c2cc3ccsc3c(N3CCN(CCO)CC3)n2)cc1` (as salt: hydrochloride) [Example 276, 5-(4-methoxyphenyl)-7-[4-(2-hydroxyethyl)piperazin-1-yl]thieno[2,3-c]pyridine hydrochloride], 129 to 131 °C.

The compound `CCCC(O)c1ccc(-c2cc3ccsc3c(N3CCN(CC)CC3)n2)cc1` (stereo not drawn) (as salt: hydrochloride) [Example 446, 7-(4-ethylpiperazin-1-yl)-5-[4-(1-hydroxybutyl)phenyl]thieno[2,3-c]pyridine dihydrochloride] had a melting point of 112 to 114 °C.

Turning to `CCN1CCN(c2nc(-c3ccc(OCC(O)CO)cc3)cc3ccccc23)CC1` (stereo not drawn) (as salt: hydrochloride) [Example 337, 1-(4-ethylpiperazin-1-yl)-3-[4-(2,3-dihydroxypropoxy)phenyl]isoquinoline dihydrochloride], the melting point is 133 to 135 °C (dec.).

Regarding `CCCS(=O)(=O)c1ccc(-c2cc3ccccc3c(N3CCN(CC)CC3)n2)cc1` (as salt: hydrochloride) [Example 349, 1-(4-ethylpiperazin-1-yl)-3-[4-propylsulfonyl)phenyl]isoquinoline dihydrochloride], the melting point was 240.5 to 242 °C (dec.).
